Experimental data as given in US9993002B2, “1,2,3-thiadiazol-5yl-urea derivatives, use thereof for regulating plant senescence and preparations containing these derivatives” (USTAV EXPERIMENTALNI BOTANIKY AV CR, V.V.I., priority 2014, dated 2018).
Marks after values point to notes of the source that are not given here.

Experiments:
Format in all cases: in vivo
[1] = tested on: winter wheat, Triticum aestivum cv. Hereward; assay: Saline stress-induced senescence of wheat plants; details: 100 nM, 75 mM NaCl, assessed 25 and 30 days after planting
Procedure: To investigate the effect of compound 6 to saline-induced senescence seeds of winter wheat, Triticum aestivum cv. Hereward, were washed under running water for 24 hours and then sown to 1 L containers on perlite soaked with water or 100 nM water solution of […]. Containers were placed in the growth chamber at 25° C. with a 16/8 h light period at 50 μmol·m^−2·s^−1. Seven days after planting the plants were treated by 75 mM NaCl solution. Plants were allowed to grow and 25 and 30 days after planting the result was assessed.

[2] = tested on: winter wheat, Triticum aestivum cv. Hereward; assay: Drought stress tolerance of wheat plants; details: 100 nM aqueous solution, drought stress last 20 days, 30 days after planting; untreated 37%
Procedure: To investigate the effect of 1-(2-methoxy-ethyl)-3-[1,2,3]thiadiazol-5-yl-urea and 1-furfuryl-[1,2,3]thiadiazol-5-yl-urea to drought-induced senescence, seeds of winter wheat, Triticum aestivum cv. Hereward, were washed under running water for 24 hours and then sown into trays with perlite (30×40 cm) and soaked by water, or 100 nM aqueous solution of 1-(2-methoxy-ethyl)-3-[1,2,3]thiadiazol-5-yl-urea or 1-furfuryl-[1,2,3]thiadiazol-5-yl-urea. The trays were placed in a growth chamber at 25° C. with 8/16 hours light/dark cycle at intensity […]. Plants were under drought stress last 20 days. 30 Days after planting it was counted how many plants survived on individual trays.

[3] = tested on: spring barley (Hordeum vulgare), malting variety Bojos; assay: Field experiment, spring barley, foliar spraying; details: 5 μM foliar; for Grain yield: control 7.653; for Number of grains/spike: control 23.49; for Thousand grain weight: control 45.85; for Number of tillers: control 4.61; for Number of spikes/m^2: control 700.4
From the text: The initial field experiments were done with spring barley (Hordeum vulgare), malting variety Bojos in field plots of University of Palacky in Olomouc. All field experiments were done according to criteria for Good Experimental Practices. Six repetitions (each 10 m^2) were used per one variant, sowing rate was 3.5 millions of germinated grains per hectare. Field trials were not treated by growth regulators and fungicides, except of applied compounds. Compounds 1-(2-methoxy-ethyl)-3-[1,2,3]thiadiazol-5-yl-urea and 1-(2-chloro-ethyl)-3-[1,2,3]thiadiazol-5-yl-urea were applied once in indicated time (Tillering, BBCH 23-25 or Inflorescence emergence, BBCH 51-53) by foliar spraying in concentration 5 μM. For each variant at least 50 plants were used to obtain morphology parameters. Statistical evaluation was executed in stat. program PAST v. 2.17c.

[4] = tested on: spring barley (Hordeum vulgare), malting variety Bojos; assay: Field experiment, spring barley, pre-soaked seeds; details: seeds pre-soaked in 50 μM solution
Procedure: Seeds of spring barley (Hordeum vulgare), malting variety Bojos were pre-soaked in 50 μM solution of compound 6 or 65 and sown as described in example 15. For each variant at least 50 plants were used to obtain morphology parameters. Statistical evaluation was executed in stat. program PAST v. 2.17c.

winter oilseed rape = assay: Field experiment, winter oilseed rape, foliar spray; details: 25 μM foliar spray, BBCH 50
Procedure: (§1) All field experiments were done according to criteria for Good Experimental Practices. Six repetitions (10 m^2 each) were used per one variant. Field trials were not treated by growth regulators and fungicides, except of applied compound 1-furfuryl-[1,2,3]thiadiazol-5-yl-urea. N-furfuryl-N′-1,2,3-thiadiazol-5-yl-urea was applied once at the precise time (extension growth BBCH 50), by foliar spray at a concentration of 25 μM. For each variant at least 50 plants were used to obtain morphology parameters. Statistical evaluation was executed in stat. program PAST v. 2.17c.

spring barley = assay: Field experiments, spring barley, years 2014 and 2015, foliar spray
Procedure: as §1
All field experiments were done according to criteria for Good Experimental Practices as described in example 17. N-furfuryl-N′-1,2,3-thiadiazol-5-yl-urea was applied once at the precise time (extension growth BBCH 50), by foliar spray at a concentration of 25 μM in a year 2014 and at a concentration of 5 μM in a year 2015. For each variant at least 50 plants were used to obtain morphology parameters. Statistical evaluation was executed in stat. program PAST v. 2.17c.

[5] = Inflorescence emergence, BBCH 51-53
[6] = Tillering, BBCH 23-25, listed as compound 6

Row | Compound | plants survived [2] | Grain yield, % of control [3, 5] | Number of grains/spike, % of control [3, 5] | Thousand grain weight, % of control [3, 5] | Grain yield [3, 5] | Number of grains/spike [3, 5] | Thousand grain weight [3, 5] | Grain yield, % of control ([3]; Tillering, BBCH 23-25) | Number of grains/spike, % of control ([3]; Tillering, BBCH 23-25) | Number of spikes/m^2, % of control ([3]; Tillering, BBCH 23-25) | Number of tillers, % of control ([3]; Tillering, BBCH 23-25) | Thousand grain weight, % of control ([3]; Tillering, BBCH 23-25) | Number of tillers ([3]; Tillering, BBCH 23-25) | Grain yield ([3]; Tillering, BBCH 23-25) | Number of grains/spike ([3]; Tillering, BBCH 23-25) | Thousand grain weight ([3]; Tillering, BBCH 23-25) | Number of spikes/m^2 ([3]; Tillering, BBCH 23-25) | grain yield compared to untreated control [4] | also measured
1 | COCCNC(=O)Nc1cnns1 [Compound 6, 1-(2-methoxy-ethyl)-3-[1,2,3]thiadiazol-5-yl-urea] | 82% | 103.6% | 99.5% | 102.0% | 7.927 t/ha | 23.37 | 46.77 g | 111.3% | 103.3% | 110.3* % | 115.7* % | 102.9% | 5.3* | 8.517 t/ha | 24.27 | 47.18 g | 772.4* | 107.3% | effect on saline stress-induced senescence (in words) [1]: significantly delays stress-induced senescence; Number of spikes/m^2, % of control [3, 6]: 110.3%; Number of tillers, % of control [3, 6]: 115.7%
2 | O=C(NCc1ccco1)Nc1cnns1 [Compound 84, N-furfuryl-N′-1,2,3-thiadiazol-5-yl-urea] | 71% |  |  |  |  |  |  |  |  |  |  |  |  |  |  |  |  |  | WTK (weight of a thousand kernels) (winter oilseed rape; control 4.35): 4.8 g; Seed yield (winter oilseed rape; control 4.994): 6.038 t/ha; WTK, % of control (winter oilseed rape; listed as Comp. 84): 110.3%; WTK, % of control (spring barley; Year 2014, 25 μM foliar spray): 100.06%; Seed yield (spring barley; Year 2014, 25 μM foliar spray, control 7.65): 8.02 t/ha; grains per ear (spring barley; Year 2014, 25 μM foliar spray, control 23.5): 24.6; WTK (spring barley; Year 2014, 25 μM foliar spray, control 45.85): 45.88 g; Seed yield (spring barley; Year 2015, 5 μM foliar spray, control 7.01): 7.49 t/ha
3 | O=C(NCCCl)Nc1cnns1 [Compound 65, 1-(2-Chloro-ethyl)-3-[1,2,3]thiadiazol-5-yl-urea] |  | 109.7% | 102.9% | 100.2% | 8.398 t/ha | 24.17 | 45.96 g | 109.3% | 103.9% | 109.2* % | 109.2% | 99.0% | 5.0 | 8.362 t/ha | 24.42 | 45.35 g | 764.8* | 109.0% | Number of spikes/m^2, % of control ([3]; Tillering, BBCH 23-25, listed as compound 65): 109.2%
